Results on ten compounds are retold here after publication PMC5513444, “The synthesis and evaluation of triazolopyrimidines as anti-tubercular agents” (Bioorganic & Medicinal Chemistry, 2017).

SMILES strings stand for the structures. Converted amounts (≈) assume the structure as drawn. “And” between values parts separate entries of the source, which are not always exact repeats. Identical values can stand only once. Like-named read-outs stand apart in the source and are kept apart here. Some results are limits rather than exact numbers.

Data set [1] has as its system Saccharomyces cerevisiae Y187. Put plainly: MIC99 on solid medium, S. cerevisiae. The note with it: YPD agar, 3–4 days.
Data set [2] relates to M. tuberculosis H37Rv. Put plainly: MIC90 against M. tuberculosis in liquid medium. The format is cell-based, Mycobacterium tuberculosis. As to conditions: liquid medium 7H9-Tw-OADC, aerobic, 5 days, average ± SD of two independent experiments, read-out: MIC (MIC90, minimum concentration required to inhibit growth of M. tuberculosis by 90%).
Another data set has as its system HepG2 cells. The data set can be described thus: Cytotoxicity against HepG2 cell line (CellTiter-Glo). It counts as cell-based. The note with it: for Selectivity index (SI) = IC50/MIC90: HepG2 IC50 / M. tuberculosis MIC90; for IC50: Homo sapiens, 48 h, HepG2, 2 days incubation, read-out: IC50 (concentration required to reduce the viability of HepG2 cells by 50%).
In data set [3] the test system is M. tuberculosis H37Rv. The data set can be described thus: MIC99 on solid medium, M. tuberculosis. It counts as cell-based, Mycobacterium tuberculosis. As to conditions: solid medium 7H10-OADC, 4 weeks, lowest concentration yielding less than 1% growth.
The next data set has as its system M. tuberculosis. The data set can be described thus: Kill kinetics against M. tuberculosis in liquid culture. As to conditions: for Kill of non-replicating M. tuberculosis: non-replicating bacteria (starvation conditions, PBS-Ty), over 14–21 days; for Activity against replicating M. tuberculosis (kill kinetics): replicating bacteria in 7H9-Tw-OADC, over 21 days. The format is cell-based, Mycobacterium tuberculosis.

The subject of data set [4] is Bacillus subtilis Marburg. Put plainly: MIC99 on solid medium, B. subtilis. The format is cell-based. As to conditions: nutrient agar, 28 °C, 3–4 days.
In data set [5] the test system is Pseudomonas aeruginosa HER1018 (PAO1). The data set can be described thus: MIC99 on solid medium, P. aeruginosa. It counts as cell-based. The note with it: PAO1, 24 h, tryptic soy agar, 1 day.
In another data set the test system is Escherichia coli DH5α. The data set can be described thus: MIC99 on solid medium, E. coli. The format is cell-based. The note with it: 24 h, LB agar, 1 day.
Data set [6] concerns Mycobacterium smegmatis mc^2155. Put plainly: MIC99 on solid medium, M. smegmatis. The format is cell-based. As to conditions: Mycolicibacterium smegmatis, 3–4 days.
A short description of data set [7]: Turnover by rat liver microsomes. The format is in vitro ADME. On the procedure: (§1) Based on in silico ADME predictions, three compounds were chosen to cover a range of cLogP values and were evaluated for their in vitro microsomal stability (Table 7). Rapid metabolism of compound 44 was observed, in rodent and human liver microsomes. The para-OCF3 analog 48 was also rapidly metabolized. The amide (49) had improved in vitro microsomal stability, with only 12% loss after 30 min in mouse microsomes, 22% loss in rat microsomes and 31% loss in human microsomes. The difference in stability for these three compounds is probably due to presence of more than one oxidatively-labile carbon in 44 and 48 (both have a two carbon linker), while 49 has only one such soft spot, although these have not been confirmed with metabolite identification studies.
(In general: Liver microsomes are a subcellular fraction often used to study metabolism.)

Data set [8] can be described thus: Fraction unbound in mouse plasma. As to conditions: read-out: Mouse Fu,pl (fraction unbound in plasma). The format is in vitro ADME. The text has this: Table 7 In vitro ADME and in vivo PK. | column: Mouse Fu,pl ^a
A short description of data set [9]: Turnover by mouse liver microsomes. It counts as in vitro ADME. On the procedure:
as §1

A short description of data set [10]: In vivo mouse PK after oral and intravenous administration. The note with it: male mice, oral 10 mg/kg. On the procedure: The oral exposure of the three compounds was evaluated in male mice by comparing exposures following oral (PO) and intravenous (IV) administration of 10 and 1 mg/kg doses of compounds, respectively (Table 7).
The nature of data set [11]: Turnover by human liver microsomes. The format is in vitro ADME. On the procedure: as §1
Setting [12] is: Mycobacterium tuberculosis, H37RV, 120 h.
Setting [13] is: Mycobacterium tuberculosis, H37RV, 672 h.

As for `COc1ccc(CCNc2cc(-c3ccccn3)nc3ncnn23)cc1` [Compound 16, N-(4-Methoxyphenethyl)-5-(pyridin-2-yl)-[1,2,4]triazolo[1,5-a]pyrimidin-7-amine], the melting point (commonly the temperature of the solid-liquid transition) lay within 172 to 173 °C. In addition, the “MIC99 S. cerevisiae” value in data set [1] is more than 100 µM. In the data set with M. tuberculosis H37Rv [2] (setting [12]), the MIC90 was determined as 0.83 ± 0.26 µM (≈ 0.288 µg/mL). In the data set with HepG2 cells, the “Selectivity index (SI) = IC50/MIC90” value was more than 130 and the IC50 is more than 100 µM. In addition, the MIC99 (as a rule, the lowest concentration that inhibits either 99% of growth or 99% of the strains tested, depending on the study) with M. tuberculosis H37Rv [3] (setting [13]) was determined as 13 µM (≈ 4.5 µg/mL). The MIC99 against M. tuberculosis H37Rv [3] was less than 20 µM. Also, in the data set on M. tuberculosis, the “Kill of non-replicating M. tuberculosis” value is listed as 2–3 log and the “Activity against replicating M. tuberculosis (kill kinetics)” value (“Activity” for short) is on record as “static activity”. The compound further had an MIC99 in data set [4] of more than 100 µM. In data set [5], this compound displayed an MIC99 of more than 100 µM. In the data set with Escherichia coli DH5α, this compound came in with an MIC99 of more than 100 µM. In data set [6], the MIC99 is more than 100 µM.

Consider `Cc1ccc(CCNc2cc(-c3ccccc3)nc3ncnn23)cc1` [Compound 44, N-(4-Methylphenethyl)-5-phenyl-[1,2,4]triazolo[1,5-a]pyrimidin-7-amine], for which the MIC90 in the data set on M. tuberculosis H37Rv [2] (setting [12]) is 1.4 ± 0.5 µM (≈ 0.461 µg/mL). Further, in the data set on HepG2 cells, the “Selectivity index (SI) = IC50/MIC90” value is on record as 43 and the IC50 came out at 53 µM. The “% turnover by liver microsomes in 30 min, Rat” value (“% turnover … Rat” for short) in data set [7] was 99.2%. Moreover, in [8], the fraction unbound (in general, the share of the substance not bound to proteins or other matrix) was found to be 0.015. Besides, in [9], the “% turnover by liver microsomes in 30 min, Mouse” value (shortened to “% turnover … Mouse”) was determined as 98.2%. For the same compound, in data set [10], the Cmax (usually the maximum level reached in the sampled fluid or tissue) amounted to 604 nM, the “PO Tmax” value is listed as 0.25 h and the “PO t1/2” value is listed as 1.05 h. Also, the “% turnover by liver microsomes in 30 min, Human” value (from here on “% turnover … Human”) in [11] came out at 68.1%.

As for `FC(F)(F)Oc1ccc(CCNc2cc(-c3ccccc3)nc3ncnn23)cc1` [Compound 48, 5-Phenyl-N-(4-(trifluoromethoxy)phenethyl)-[1,2,4]triazolo[1,5-a]pyrimidin-7-amine], the “MIC99 S. cerevisiae” value in data set [1] was more than 10 µM. Besides, the MIC90 with M. tuberculosis H37Rv [2] (setting [12]) was 3.9 ± 1.1 µM (≈ 1.56 µg/mL). In addition, in the data set on HepG2 cells, the “Selectivity index (SI) = IC50/MIC90” value is more than 27. In addition, the IC50 in the data set with HepG2 cells was more than 100 µM. Moreover, the “% turnover … Rat” value in [7] came out at 52.7%. Further, in [8], the fraction unbound was determined as 0.007. Besides, the “% turnover … Mouse” value in data set [9] worked out at 52.1%. For the same compound, the MIC99 against M. tuberculosis H37Rv [3] (setting [13]) was 1.6 µM (≈ 0.639 µg/mL); in the data set on M. tuberculosis H37Rv [3] it was less than 20 µM; in data set [4], more than 10 µM; in data set [5], more than 100 µM; against Escherichia coli DH5α it was more than 10 µM; in data set [6] it was more than 10 µM. Moreover, in the data set on M. tuberculosis, the “Kill of non-replicating M. tuberculosis” value is reported as 2–3 log. The “Activity” value in the data set with M. tuberculosis is reported as “static activity”. For the same compound, the concentration in data set [10] peaked (Cmax) at 958 nM. For the same compound, the “PO AUC” value in data set [10] is 2.75 µM·h. In addition, the “PO Tmax” value in [10] came to 0.75 h. Further, in data set [10], the “PO t1/2” value stood at 2.49 h. In data set [11], the “% turnover … Human” value came out at 32.8%.

`COc1ccc(CC(=O)Nc2cc(-c3ccccc3)nc3ncnn23)cc1` [Compound 49, 2-(4-Methoxyphenyl)-N-(5-phenyl-[1,2,4]triazolo[1,5-a]pyrimidin-7-yl)acetamide]: the “MIC99 S. cerevisiae” value in data set [1] is more than 10 µM. Moreover, the MIC90 in the data set with M. tuberculosis H37Rv [2] (setting [12]) was 1.5 ± 0.7 µM (≈ 0.539 µg/mL). Moreover, in the data set with HepG2 cells, the “Selectivity index (SI) = IC50/MIC90” value is listed as more than 73. Besides, the IC50 in the data set with HepG2 cells was more than 100 µM. Also, the “% turnover … Rat” value in [7] was 22% and 21.8%. Further, the “% turnover … Mouse” value in data set [9] was 12% and 12.5%. The MIC99 against M. tuberculosis H37Rv [3] (setting [13]) was 3.1 µM (≈ 1.11 µg/mL); against M. tuberculosis H37Rv [3], less than 20 µM; in data set [4], more than 10 µM; in [5], more than 10 µM; against Escherichia coli DH5α, more than 10 µM; in data set [6], more than 10 µM. In addition, in the data set on M. tuberculosis, the “Kill of non-replicating M. tuberculosis” value is reported as 2–3 log. Further, the “Activity” value in the data set on M. tuberculosis was “static activity”. In addition, the peak level in data set [10] (Cmax) was 62.8 nM. Besides, the “PO AUC” value in data set [10] came to 0.187 µM·h. The “PO Tmax” value in [10] was 1.5 h. Also, the “% turnover … Human” value in data set [11] is 31% and 30.6%.

`COc1ccc(CCN(C)c2cc(-c3ccccc3)nc3ncnn23)cc1` [Compound 61, N-(4-Methoxyphenethyl)-N-methyl-5-phenyl-[1,2,4]triazolo[1,5-a]pyrimidin-7-amine] gave a melting point of 170 to 171 °C. Moreover, in the data set with M. tuberculosis H37Rv [2] (setting [12]), the MIC90 was more than 20 µM. Moreover, the IC50 in the data set on HepG2 cells is 17 µM.

As to `COc1ccc(C2CCN(c3cc(-c4ccccn4)nc4ncnn34)C2)cc1` (centres unmarked) [Compound 62, 7-(3-(4-Methoxyphenyl)pyrrolidin-1-yl)-5-(pyridin-2-yl)-[1,2,4]triazolo[1,5-a]pyrimidine], the melting point is 222 to 223 °C. Moreover, the MIC90 in the data set with M. tuberculosis H37Rv [2] (setting [12]) was more than 20 µM. In the data set on HepG2 cells, the IC50 came to 23 µM.

Turning to `COc1ccc(CCNc2cc(-c3ccccn3)nc3nc(C)nn23)cc1` [Compound 67, N-(4-Methoxyphenethyl)-2-methyl-5-(pyridin-2-yl)-[1,2,4]triazolo[1,5-a]pyrimidin-7-amine], the melting point lay in the range of 139 to 141 °C. The MIC90 with M. tuberculosis H37Rv [2] (setting [12]) is 3.9 ± 0.21 µM (≈ 1.41 µg/mL). In the data set with HepG2 cells, the “Selectivity index (SI) = IC50/MIC90” value is listed as more than 26 and the IC50 is more than 100 µM.

`COc1ccc(CCNc2cc(-c3ccccn3)nc3nc(-c4ccccc4)nn23)cc1` [Compound 68, N-(4-Methoxyphenethyl)-2-phenyl-5-(pyridin-2-yl)-[1,2,4]triazolo[1,5-a]pyrimidin-7-amine] yielded a melting point of 146 to 148 °C. Further, the MIC90 in the data set with M. tuberculosis H37Rv [2] (setting [12]) was more than 20 µM. In the data set with M. tuberculosis H37Rv [2], the MIC90 was more than 20 µM. For the same compound, the IC50 with HepG2 cells is more than 100 µM.

Regarding `COc1ccc(CCNc2cc(-c3ccccn3)nc3ccnn23)cc1` [Compound 69, N-(4-Methoxyphenethyl)-5-(pyridin-2-yl)pyrazolo[1,5-a]pyrimidin-7-amine], the melting point fell in the range of 116 to 117 °C. Besides, in the data set on M. tuberculosis H37Rv [2] (setting [12]), the MIC90 amounted to 2.5 ± 0.15 µM (≈ 0.864 µg/mL). In addition, in the data set with HepG2 cells, the “Selectivity index (SI) = IC50/MIC90” value came to 9 and the IC50 worked out at 23 µM.

For `COc1ccc(CCNc2cc(-c3ccccn3)nc3nccn23)cc1` [Compound 70, N-(4-Methoxyphenethyl)-7-(pyridin-2-yl)imidazo[1,2-a]pyrimidin-5-amine], the melting point lay within 234 to 235 °C. Also, in the data set with M. tuberculosis H37Rv [2] (setting [12]), the MIC90 came to 0.22 ± 0.07 µM (≈ 0.076 µg/mL). For the same compound, in the data set with HepG2 cells, the “Selectivity index (SI) = IC50/MIC90” value stood at 142 and the IC50 was 30 µM.
